Results on one compound are retold here after patent US6984645B2, “Dual inhibitors of adipocyte fatty acid binding protein and keratinocyte fatty acid binding protein” (Bristol-Myers Squibb Company, priority 2001, dated 2006).

`O=C(Nc1cccc(C(=O)O)c1OCc1ccccc1Cl)c1ccccc1Cl` [Example 392, 3-[(2-Chlorobenzoyl)amino]-2-[(2-chlorophenyl)methoxy]benzoic acid] came in with a melting point of 182 to 183 °C.
